The source of these data is US9498546B2, “Synthesis and application of novel imaging agents conjugated to DPA 713 analogs for imaging inflammation” (THE JOHNS HOPKINS UNIVERSITY, priority 2012, dated 2016).

The data set has as its system TSPO+ PC-3 PIP and PC-3 flu prostate xenografts. In words: In vivo NIRF imaging in PC-3 PIP and PC-3 flu xenograft bearing mice. Also noted: species or system athymic nude mice. Particulars: for Distribution of fluorescent signal, tracer only: 8 nmol intraperitoneally. How it is done: FIG. 7 depicts imaging of athymic nude mice bearing two subcutaneous xenografts each consisting of one PC-3 PIP (PSMA+ stable transfected, macrophage and vasculature enriched) and PC-3 flu (PC-3 transfected with empty vector) were injected intraperitoneally with 8 nmol of DPA-713-IRDye680LT when the tumors reached 4-8 mm in diameter. […] The mice were imaged in vivo at 1 hour post-injection and again at 24 hours post-injection.
Prostate lines PC-3 PIP (PSMA stable transfected) and PC-3 flu (empty vector transfected) cells were originally a gift from Warren B. Heston (Cleveland Clinic Foundation). PC-3 is androgen insensitive and constituitively expresses TSPO. […] Intact male athymic nude mice were inoculated subcutaneously with 2×10^6 PC-3 PIP cells behind the right forearm and 2×10^6 PC-3 flu cells behind the left forearm and were allowed to grow for 14 days until they reached 1 cm in longest diameter. Mice bearing LNCaP xenografts were inoculated with 5×10^6 cells in Matrigel (1:1, vol:vol) (Becton Dickenson, Franklin Lakes, N.J.) and were allowed to grow for a year before they reached 1 cm in diameter. The mice were then used in imaging experiments as described below.
PC-3 PIP and -flu xenograft bearing mice. […] The mice were anesthetized with isoflurane gas (2% in oxygen) and imaged at 1 hour and 24 hours post-injection using the Pearl Impulse imager using the 680 absorption/710 emission channels (DPA-713-IRDye680LT). PIP/flu and LNCaP-bearing mice were imaged using the inventive probe DPA-713-IRDye800CW at 1 hour post-injection using a Perkin Elmer IVIS 200 instrument set to absorb at 790 nm and emit at 810 nm. Images were visualized and processed using the manufacturer's Living Image software.
Prostate tumors that have become androgen insensitive constituitively express TSPO, including the PC-3 cell line. Athymic nude mice bearing two subcutaneous xenografts each consisting of one PC-3 PIP (PSMA+ stable transfected, macrophage and vasculature enriched) and PC-3 flu (PC-3 transfected with empty vector) were injected intraperitoneally with 8 nmol of DPA-713-IRDye680LT when the tumors reached 4-8 mm in diameter. […] The mice were imaged in vivo at 1 hour post-injection and again at 24 hours post-injection.

On to `CCN(CC)C(=O)Cc1c(-c2ccc(OCCNC(=O)CCCCc3cccc(C(=C\C=C4/N(CCCS(=O)(=O)O)c5ccc6c(S(=O)(=O)O)cc(S(=O)(=O)O)cc6c5C4(C)C)/C=C/C4=[N+](CCCS(=O)(=O)[O-])c5ccc6c(S(=O)(=O)O)cc(S(=O)(=O)O)cc6c5C4(C)C)c3)cc2)nn2c(C)cc(C)nc12` [DPA-713-IRDye680LT, 3-(2-((1E,3Z,5Z)-3-(3-(5-(2-(4-(3-(2-(diethylamino)-2-oxoethyl)-5,7-dimethylpyrazolo[1,5-a]pyrimidin-2-yl)phenoxy)ethylamino)-5-oxopentyl)phenyl)-5-(1,1-dimethyl-6,8-disulfo-3-(3-sulfopropyl)-1Hbenzo[e]indol-2(3H)-ylidene)penta-1,3-dienyl)-1,1-dimethyl-6,8-disulfo-1H-benzo[e]indolium-3-yl)propane-1-sulfonate], for which the “Distribution of fluorescent signal, tracer only” value is, setting by setting: (1 hour post-injection) “only the macrophage enriched PC-3 PIP tumor is clearly visible”; (24 hours post-injection) “distributed at the periphery of both tumors in the tracer-only mouse and is strongly retained by TSPO+ kidneys”. Moreover, the “Tumor uptake with co-administered unlabeled DPA-713” value (8 nmol tracer + 20 mg/kg unlabeled DPA-713, 1 hour post-injection) is “Neither tumor takes up the fluorescent probe”. Further, the “Tumor and kidney uptake with co-injected unlabeled DPA-713” value (8 nmol tracer + 20 mg/kg unlabeled DPA-713, 24 hours post-injection) is “neither tumor nor kidney uptake”. Where the note is “24 hours post-injection, intraperitoneal”, the “Clearance of unbound probe” value is given as “cleared from the peritoneal space”.
